13 compounds from patent publication US20120083476A1, “HETEROARYL-SUBSTITUTED SPIROCYCLIC DIAMINE UREA MODULATORS OF FATTY ACID AMIDE HYDROLASE” (Janssen Pharmaceutica NV, priority 2009, published 2012) can be followed below.

Counter-ions that a name gives are not always drawn.

For orientation: IC50 means the point on the concentration scale where inhibition reaches its midpoint.

For one experiment, the target named is T1, FAAH (Homo sapiens, UniProt O00519).
T1 sequence (O00519 1-579): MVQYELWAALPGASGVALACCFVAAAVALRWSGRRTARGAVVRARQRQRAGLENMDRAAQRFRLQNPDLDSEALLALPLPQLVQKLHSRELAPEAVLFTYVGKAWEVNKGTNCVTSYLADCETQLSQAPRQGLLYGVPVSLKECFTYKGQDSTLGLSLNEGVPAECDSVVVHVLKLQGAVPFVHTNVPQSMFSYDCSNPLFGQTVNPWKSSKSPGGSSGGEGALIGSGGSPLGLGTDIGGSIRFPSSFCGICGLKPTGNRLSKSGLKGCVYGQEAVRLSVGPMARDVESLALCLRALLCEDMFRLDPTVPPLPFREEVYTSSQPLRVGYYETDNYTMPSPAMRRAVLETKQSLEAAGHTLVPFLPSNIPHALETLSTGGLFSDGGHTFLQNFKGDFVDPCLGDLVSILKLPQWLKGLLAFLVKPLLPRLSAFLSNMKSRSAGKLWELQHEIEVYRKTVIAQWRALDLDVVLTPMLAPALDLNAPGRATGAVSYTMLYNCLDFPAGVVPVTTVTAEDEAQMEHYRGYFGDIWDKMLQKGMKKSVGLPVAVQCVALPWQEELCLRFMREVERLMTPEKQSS
Briefly: Assay Method 1: human FAAH assay (3H-anandamide hydrolysis in cell homogenate). The note with it: read-out: Assay 1 IC50. Further details: expressed in transfected cells; host or cells: SK-N-MC cells stably transfected with human FAAH cDNA (G418 selection); alternatively T84 cell pellets. The experiment is classed as biochemical. As for the experimental part: A. Transfection of Cells with Human FAAH
A 10-cm tissue culture dish with a confluent monolayer of SK-N-MC cells was split 2 days (d) prior to transfection. Using sterile technique, the media was removed and the cells were detached from the dish by the addition of trypsin. One fifth of the cells were then placed onto a new 10-cm dish. Cells were grown in a 37° C. incubator with 5% CO2 in Minimal Essential Media Eagle with 10% Fetal Bovine Serum. After 2 d, cells were approximately 80% confluent. These cells were removed from the dish with trypsin and pelleted in a clinical centrifuge. The pellet was re-suspended in 400 μL complete media and transferred to an electroporation cuvette with a 0.4 cm gap between the electrodes. Supercoiled human FAAH cDNA (1 μg) was added to the cells and mixed. The voltage for the electroporation was set at 0.25 kV, and the capacitance was set at 960 μF. After electroporation, the cells were diluted into complete media (10 mL) and plated onto four 10-cm dishes. Because of the variability in the efficiency of electroporation, four different concentrations of cells were plated. […] The cells were allowed to recover for 24 h before adding the selection media (complete media with 600 μg/mL G418). After 10 d, dishes were analyzed for surviving colonies of cells. Dishes with well-isolated colonies were used. Cells from individual colonies were isolated and tested.
T84 frozen cell pellets or transfected SK-N-MC cells (contents of 1×15 cm culture dishes) were homogenized in 50 mL of FAAH assay buffer (125 mM Tris, 1 mM EDTA, 0.2% Glycerol, 0.02% Triton X-100, 0.4 mM Hepes, pH 9). The assay mixture consisted of 50 μL of the cell homogenate, 10 μL of the test compound, and 40 μL of anandamide [1-^3H-ethanolamine] (^3H-AEA, Perkin-Elmer, 10.3 Ci/mmol), which was added last, for a final tracer concentration of 80 nM. The reaction mixture was incubated at rt for 1 h. During the incubation, 96-well Multiscreen filter plates (catalog number MAFCNOB50; Millipore, Bedford, Mass., USA) were loaded with 25 of activated charcoal (Multiscreen column loader, catalog number MACL09625, Millipore) and washed once with 100 μL of MeOH. Also during the incubation, 96-well DYNEX MicroLite plates (catalog number NL510410) were loaded with 100 μL of MicroScint40 (catalog number 6013641, Packard Bioscience, Meriden, Conn., USA). After the 1 h incubation, 60 μL of the reaction mixture were transferred to the charcoal plates, which were then assembled on top of the DYNEX plates using Centrifuge Alignment Frames (catalog number MACF09604, Millipore). The unbound labeled ethanolamine was centrifuged through to the bottom plate (5 min at 2000 rpm), which was preloaded with the scintillant, as described above. The plates were sealed and left at rt for 1 h before counting on a Hewlett Packard TopCount.
Compounds were tested in free base or trifluoroacetic acid salt forms.

Another experiment has as its target T2, Rat FAAH (Rattus norvegicus, UniProt P97612).
T2 construct: expressed in transfected cells; host or cells: SK-N-MC cells stably transfected with rat FAAH cDNA (G418 selection)
T2 sequence (P97612 1-579): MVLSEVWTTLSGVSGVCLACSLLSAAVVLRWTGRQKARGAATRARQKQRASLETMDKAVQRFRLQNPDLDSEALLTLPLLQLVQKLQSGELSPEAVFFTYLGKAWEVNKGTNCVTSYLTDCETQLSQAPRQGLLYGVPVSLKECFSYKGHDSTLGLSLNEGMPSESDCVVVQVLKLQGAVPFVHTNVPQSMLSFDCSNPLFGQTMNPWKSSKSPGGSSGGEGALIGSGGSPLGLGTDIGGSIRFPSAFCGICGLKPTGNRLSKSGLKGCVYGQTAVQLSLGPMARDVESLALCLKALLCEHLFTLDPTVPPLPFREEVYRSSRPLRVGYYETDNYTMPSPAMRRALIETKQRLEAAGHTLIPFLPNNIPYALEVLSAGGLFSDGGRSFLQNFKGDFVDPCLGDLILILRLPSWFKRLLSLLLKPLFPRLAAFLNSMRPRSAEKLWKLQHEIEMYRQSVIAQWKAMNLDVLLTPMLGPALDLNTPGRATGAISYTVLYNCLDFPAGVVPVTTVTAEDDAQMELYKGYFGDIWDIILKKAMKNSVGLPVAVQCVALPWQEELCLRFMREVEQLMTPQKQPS
Kind of experiment: Assay Method 2: rat FAAH assay (3H-anandamide hydrolysis in cell homogenate). Format: biochemical. The note with it: read-out: Assay 2 IC50. As for the experimental part: A. Transfection of Cells with Rat FAAH A 10-cm tissue culture dish with a confluent monolayer of SK-N-MC cells was split 2 days (d) prior to transfection. Using sterile technique, the media was removed and the cells were detached from the dish by the addition of trypsin. One fifth of the cells were then placed onto a new 10-cm dish. Cells were grown in a 37° C. incubator with 5% CO2 in Minimal Essential Media Eagle with 10% Fetal Bovine Serum. After 2 d, cells were approximately 80% confluent. These cells were removed from the dish with trypsin and pelleted in a clinical centrifuge. The pellet was re-suspended in 400 μL complete media and transferred to an electroporation cuvette with a 0.4 cm gap between the electrodes. Supercoiled rat FAAH cDNA (1 μg) was added to the cells and mixed. The voltage for the electroporation was set at 0.25 kV, and the capacitance was set at 960 μF. After electroporation, the cells were diluted into complete media (10 mL) and plated onto four 10-cm dishes. Because of the variability in the efficiency of electroporation, four different concentrations of cells were plated. The ratios used were 1:20, 1:10, and 1:5, with the remainder of the cells being added to the fourth dish. The cells were allowed to recover for 24 h before adding the selection media (complete media with 600 μg/mL G418). After 10 d, dishes were analyzed for surviving colonies of cells. Dishes with well-isolated colonies were used. Cells from individual colonies were isolated and tested. […] B. FAAH Assay T84 frozen cell pellets or transfected SK-N-MC cells (contents of 1×15 cm culture dishes) were homogenized in 50 mL of FAAH assay buffer (125 mM Tris, 1 mM EDTA, 0.2% Glycerol, 0.02% Triton X-100, 0.4 mM Hepes, pH 9). […] The reaction mixture was incubated at rt for 1 h. During the incubation, 96-well Multiscreen filter plates (catalog number MAFCNOB50; Millipore, Bedford, Mass., USA) were loaded with 25 of activated charcoal (Multiscreen column loader, catalog number MACL09625, Millipore) and washed once with 100 μL of MeOH. Also during the incubation, 96-well DYNEX MicroLite plates (catalog number NL510410) were loaded with 100 μL of MicroScint40 (catalog number 6013641, Packard Bioscience, Meriden, Conn., USA). After the 1 h incubation, 60 μL of the reaction mixture were transferred to the charcoal plates, which were then assembled on top of the DYNEX plates using Centrifuge Alignment Frames (catalog number MACF09604, Millipore). The unbound labeled ethanolamine was centrifuged through to the bottom plate (5 min at 2000 rpm), which was preloaded with the scintillant, as described above. The plates were sealed and left at rt for 1 h before counting on a Hewlett Packard TopCount. Results for compounds tested in these assays are summarized in Table 1, as an average of results obtained. Compounds were tested in free base or trifluoroacetic acid salt forms. Where activity is shown as greater than (>) a particular value, the value is the solubility limit of the compound in the assay medium or the highest concentration tested in the assay.

With `O=C(Nc1cccnc1)N1CCC2(CCCN2Cc2cccc(Oc3ccc(Cl)cc3)c2)C1` (stereo not shown) [Example 7, 1-[3-(4-Chloro-phenoxy)-benzyl]-1,7-diaza-spiro[4.4]nonane-7-carboxylic acid pyridin-3-ylamide], on FAAH, the IC50 amounted to 9 µM.
For the compound `O=C(Nc1cccnc1)N1CCCC2(CN(Cc3cccc(Oc4ccc(Cl)cc4)c3)C2)C1` [Example 26, 2-(3-(4-chlorophenoxy)benzyl)-N-(pyridin-3-yl)-2,6-diazaspiro[3.5]nonane-6-carboxamide], the IC50 on Rat FAAH is 6 µM.
The same measure, in the same setting: with `O=C(Nc1cnc2ccccc2c1)N1CCCC2(CN(Cc3cccc(Oc4ccc(Cl)cc4)c3)C2)C1` [Example 32, 2-(3-(4-chlorophenoxy)benzyl)-N-(quinolin-3-yl)-2,6-diazaspiro[3.5]nonane-6-carboxamide] the figure was 0.01 µM; with `O=C(Nc1ccc(-n2cnnc2)nc1)N1CC2(CCN(Cc3cccc(Oc4ccc(Cl)cc4)c3)CC2)C1` [Example 47, 7-[3-(4-Chloro-phenoxy)-benzyl]-2,7-diaza-spiro[3.5]nonane-2-carboxylic acid (6-[1,2,4]triazol-4-yl-pyridin-3-yl)-amide, trifluoroacetic acid salt], above 10 µM.
Still for that read-out and setting: in the case of `O=C(Nc1nnn[nH]1)N1CC2(CCN(Cc3cccc(Oc4ccc(Cl)cc4)c3)CC2)C1` [Example 51, 7-[3-(4-Chloro-phenoxy)-benzyl]-2,7-diaza-spiro[3.5]nonane-2-carboxylic acid (1H-tetrazol-5-yl)-amide, trifluoroacetic acid salt] it was 0.2 µM; in that of `O=C(Nc1cnc(-c2ccccc2)nc1)N1CC2(CCN(Cc3cccc(Oc4ccc(Cl)cc4)c3)CC2)C1` [Example 83, 7-(3-(4-chlorophenoxy)benzyl)-N-(2-phenylpyrimidin-5-yl)-2,7-diazaspiro[3.5]nonane-2-carboxamide, trifluoroacetic acid salt], 0.02 µM.
Still for that read-out and setting: with `O=C(Nc1cccnc1)N1CC2(CCN(Cc3ccc4c(c3)OC(F)(F)O4)CC2)C1` [Example 87, 7-(2,2-Difluoro-benzo[1,3]-dioxol-5-ylmethyl)-2,7-diaza-spiro[3.5]nonane-2-carboxylic acid pyridin-3-ylamide] the figure was above 10 µM.
For `O=C(Nc1cnc2[nH]ccc2c1)N1CC2(CCN(Cc3ccc4c(c3)OC(F)(F)O4)CC2)C1` [Example 89, 7-(2,2-Difluoro-benzo[1,3]dioxol-5-ylmethyl)-2,7-diaza-spiro[3.5]nonane-2-carboxylic acid (1H-pyrrolo[2,3-b]pyridin-5-yl)-amide], the IC50 at FAAH was found to be 0.5 µM.
In the case of `O=C(Nc1cccnc1)N1CC2(CCN(Cc3ccccc3Cl)CC2)C1` [Example 98, 7-(2-Chloro-benzyl)-2,7-diaza-spiro[3.5]nonane-2-carboxylic acid pyridin-3-ylamide], the IC50 on Rat FAAH was above 10 µM.
The same measure, in the same setting: in the case of `O=C(Nc1cccnc1)N1CC2(CCN(Cc3cccc(Cl)c3)CC2)C1` [Example 99, 7-(3-Chloro-benzyl)-2,7-diaza-spiro[3.5]nonane-2-carboxylic acid pyridin-3-ylamide] it was above 10 µM; in that of `O=C(Nc1cccnc1)N1CC2(CCN(Cc3ccc(C(F)(F)F)cc3)CC2)C1` [Example 102, N-(pyridin-3-yl)-7-(4-(trifluoromethyl)benzyl)-2,7-diazaspiro[3.5]nonane-2-carboxamide], above 10 µM; in that of `O=C(Nc1cccnc1)N1CC2(CCN(Cc3ccc(Cl)c(C(F)(F)F)c3)CC2)C1` [Example 109, 7-(4-chloro-3-(trifluoromethyl)benzyl)-N-(pyridin-3-yl)-2,7-diazaspiro[3.5]nonane-2-carboxamide], above 10 µM.
In the case of `O=C(Nc1cccnc1)N1CC2(CCN(Cc3cccc(Oc4ccc(OCC(F)(F)F)cc4)c3)CC2)C1` [Example 128, 7-{3-[4-(2,2,2-Trifluoro-ethoxy)-phenoxy]-benzyl}-2,7-diaza-spiro[3.5]nonane-2-carboxylic acid pyridin-3-ylamide], the IC50 on FAAH amounted to 8 µM.
